According to US20210341448A1, “SCREENING METHOD FOR THERAPEUTIC DRUG OR PROPHYLACTIC DRUG FOR TAUOPATHY AND DIAGNOSTIC METHOD FOR TAUOPATHY” (National Center for Geriatrics and Gerontology, priority 2018, published 2021):

Test system: brain slice specimen (hippocampus/entorhinal cortex complex)
Assay: Measurement of synapse transmission efficiency (fiber-volley/fEPSP) in brain slice specimens
Conditions: aging mouse brain slice exposed to 10 μg/ml for 2 to 3 hours, vs aCSF negative control; p<0.0001
Procedure: Brain slice specimens from mice were prepared by the following procedure to evaluate impacts by the tau oligomer on synapse transmission efficiency. 20- to 23-month-old C57BL/6 mice (C57BL/6J or C57BL/6N, male) were cervically dislocated and decapitated to isolate the brain. The obtained brain was thoroughly cooled in aCSF (124 mM of NaCl, 3 mM of KCl, 26 mM of NaHCO3, 1.25 mM of NaH2PO4, 2 mM of CaCl2, 1 mM of MgSO4, 10 mM of D-glucose) bubbled with a 95% O2/5% CO2 mixed gas, then dissected at the center of the cerebrum along the coronal plane, and further the dissected posterior site of the brain was sliced along the horizontal cross sections to a thickness of 350 μm using a vibratome (Leica, VT-1200S). […]
The brain slice specimen was moved to a measurement chamber through which aCSF was perfused, and electric pulse stimulation of 1.5, 2, 3, or 4 nA was applied to record induced potential changes for the measurement of synapse strength from […]. […] The recorded waveform was analyzed using a self-made analysis software to calculate an amplitude of fiber-volley and an amplitude of excitatory postsynaptic potential (fEPSP) at each electric pulse stimulation.

In the case of “tau oligomer: polymer of human tau 2N4R monomers, polymerized with mouse brain extract and ATP, collected as pellets”, the “synapse transmission efficiency (fiber-volley/fEPSP ratio)” value is reported as “significantly reduced”.
